This note sets out measurements from a melting point compilation (Tetko et al.; mined from patent text by program, amines drawn as free bases though some values may be those of a salt).

Usually melting point stands for the temperature of the solid-liquid transition.

Each structure is given as a SMILES string.

Turning to `COc1cc(I)c(C(=O)Cl)cc1OC`, the melting point lay in the range of 151 to 154 °C.

`O=C(OCC(F)(F)F)C(O)C(O)C(=O)OCC(F)(F)F` (stereo not drawn) displayed a melting point of 77 to 79 °C. For `CC(=O)C1CCC2C3CCC4CC(O)CCC4(C)C3=CCC12C` (stereo not drawn) the value was 160 to 161 °C; for `Cc1nc2c(NC(=O)C(C)(C)C)c(C(O)C=Cc3ccccc3)ccn2c1C` (stereo not drawn), 194 to 195 °C. As to `O=C1C(=O)N(Cc2ccc(O)cc2)c2ccc(S(=O)(=O)N3CCCC3COc3cccnc3)cc21` (stereo not drawn), the melting point fell in the range of 127 to 129 °C.

The compound `Cc1nc(-c2cccc(Cl)c2)n(-c2ccc(S(N)(=O)=O)cc2)n1` showed a melting point of 146 to 147 °C. In the case of `CCOC(=O)Nc1cc(N(C(=O)OCC)S(C)(=O)=O)c(C#N)cc1F` it was 129 °C; in that of `COc1ccc2[nH]c3c(c2c1)CCC(NC(C)=O)C3` (stereo not drawn), 191 to 193 °C. For `O=c1c(NCCCO)c(Cl)cnn1COCc1ccccc1` the value was 54 to 56 °C; for `N#Cc1ccc2[nH]cc(CCN3C(=O)c4ccccc4C3=O)c2c1`, 217 to 221 °C. In the case of `COc1ccc(Cn2cnc3c(-c4ccco4)nc(S(C)(=O)=O)nc32)cc1` it was 184 to 185 °C; in that of `CCC(=O)OC[C@H]1O[C@@H]2[C@@H](Sc3ccc(Cl)cc3N2CCN(CC)CC)[C@@H](OC(=O)CC)[C@@H]1OC(=O)CC`, 125 to 127 °C. `Cc1cncc(C)c1-c1c(C)cc(OS(=O)(=O)C(F)(F)F)cc1C` returned a melting point of 68 to 69 °C. For the compound `Cc1ccc(C(=O)Nc2ccc(NCC(C)O)c(C(F)(F)F)c2)cc1Nc1nccc(-c2cccnc2)n1` (stereo not drawn), the melting point fell in the range of 184 to 186 °C. `CN(C(=O)Nc1ccc(Cl)cc1)c1nncs1` registered a melting point of 182 °C. In the case of `CC1(C)Oc2ccccc2-n2c(CN3CCOCC3)ccc21` it was 150 to 151 °C; in that of `Cc1c(-c2ccncn2)nc2n(c1=O)CCCN2CC(=O)c1ccccc1`, 184 to 185 °C.

For `Cc1cccc2c1N(C(=O)OC(C)(C)C)Cc1c(-c3noc(C4CC4)n3)ncn1-2`, the melting point lay within 189 to 192 °C. In the case of `CN(C)C(=O)NCc1ccc(Nc2n[nH]c3ncnc(Nc4cccc(Cl)c4)c23)cc1` it was 238 to 240 °C; in that of `O=C(O)C1=Cc2cc(OCc3ccc(F)cc3)ccc2S(=O)(=O)CC1`, 270 to 273 °C; in that of `COc1nc2cc(Cl)c(Cl)c(-n3cnnc3-c3cccnc3)c2nc1OC`, 206 to 207 °C.

Regarding `CC(=O)Nc1ccc(OCCCCl)cc1`, the melting point was in the range of 125 to 127 °C. In turn, `CSc1nc(C)nc(SC)c1NC(=O)CCCCCSc1nc2ccccc2o1` registered a melting point of 148 to 151 °C. The compound `CCOC(=O)c1sc(C)nc1SC(=O)N(C)C` came in with a melting point of 84.5 to 85.5 °C. For the compound `O=C(Nc1ccccc1)C(=O)c1c2n(c3ccccc13)CCNCC2`, the melting point was in the range of 157 to 160 °C.

`CNS(=O)(=O)Nc1ccc(OCC2CCN(c3ccncc3)CC2)cc1`: the melting point fell in the range of 170 to 172 °C. `O=C(NCCCCSc1ccncc1)c1ccccc1CO` gave a melting point of 87 to 88 °C.

Compound `COc1ccc(OCc2ccc3ccccc3n2)cc1` registered a melting point of 79 to 80 °C. In the case of `CN(CC(N)=O)c1nccc(-c2ccc(C(=O)NCCc3ccc4[nH]cc(C(=N)N)c4c3)cc2)n1` it was 96 to 98 °C; in that of `COc1ccc(C[C@H](NC(=O)[C@H](CC(C)C)NC(=O)OCc2ccccc2)C(=O)CSC)cc1`, 100 to 101 °C. In the case of `CC(Oc1cccc(Oc2c(Cl)cc(C(F)(F)F)cc2Cl)c1)C(=O)O` (stereo not drawn) it was 120 °C; in that of `CC(c1ccc(F)c(F)c1)n1ncc(-c2ccc(S(N)(=O)=O)cc2)c(-c2ccc(F)cc2)c1=O` (stereo not drawn), 214 to 215 °C; in that of `Cc1cc(C)c2c(=O)n(CC(=O)N3CCNCC3)sc2n1`, 175 to 177 °C.

`O=C(NCCO)c1ccnc(-c2cccc3cc(Cc4cccc(C(F)(F)F)c4)sc23)c1F` came in with a melting point of 110 to 111 °C. In the case of `CCC1(c2ccccc2)OC(c2ccc(-c3ccc(Cl)cc3)cc2)OC1=O` (stereo not drawn) it was 80 to 83 °C; in that of `Cc1c(C)c2c(c(C)c1NC(=O)CC(C)(C)C)[C@@H](c1ccc(C(C)C)cc1)[C@H](C)O2` (relative stereo), 143 to 144 °C; in that of `O=C(CCCC=CCC1C(O)CC(O)C1C=CC(O)CCc1ccccc1)ON1C(=O)CCC1=O` (stereo not drawn), 93.5 to 103 °C. In the case of `CC(C)=NOCc1nc2c(N)nc3cc(-c4ccccc4)cnc3c2n1CC(C)C` it was 196 to 197 °C; in that of `O=C(O)Cc1noc2cc(F)ccc12`, 132 to 133 °C. Take `CCCN1C(=O)N2C[C@@H](Cc3ccccc3)N=C2c2[nH]c([C@H]3CC[C@H](CN)CC3)nc21`: the melting point was in the range of 70 to 71 °C. In the case of `CC(=O)NC(CSSc1ccccc1C(=O)Nc1ccc(S(N)(=O)=O)cc1)C(=O)O` (stereo not drawn) it was 218 to 220 °C. In the case of `CC(Oc1ccc(Oc2ccc(C(F)(F)F)cc2Cl)cc1)C(=O)O` (stereo not drawn) it was 90 to 92 °C. On to `COc1c(N2CCNC(CF)(CF)C2)c(F)cc2c(=O)c(C(=O)O)cn(C3CC3F)c12` (stereo not drawn), for which the melting point lay in the range of 164 to 166 °C. Consider `CN(C(=O)CBr)c1ccc(Cl)cc1Cc1ccccc1`, for which the melting point was 78 °C. For `CC1CCN(C(=O)Oc2ccccc2-c2ccccc2)CC1` the value was 85 to 86 °C; for `CNC(=O)c1cc(C(=O)OCCO)cc(C(=O)NC)n1`, 214 to 215 °C; for `C[C@]12C[C@H](c3ccc(O)cc3)C3=C4CCC(=O)C=C4CC[C@H]3[C@@H]1CCC2=O`, 220 °C. For `CNC(=O)c1ccc(-c2cnc3[nH]c(=O)n(CC4CCCCC4)c3n2)cc1` the value was 273 to 275 °C; for `COc1ccc2occ(N)c(=O)c2c1`, 98 to 100 °C; for `Cc1ccc(-c2cn(C)c(-c3ccc4c(c3)C(C)(C)c3ccccc3-4)n2)s1`, 188 to 191 °C.

In the case of `O=C(Nc1ccc(CN2C(=O)[C@H]3CCC[C@H]3N(C(=O)CN3C(=O)c4ccccc4C3=O)c3ccccc32)cc1)OCc1ccccc1` (relative stereo), the melting point fell in the range of 144 to 147 °C.

For the compound `CC1CCN(c2cc3nc(C(C)(C)C)sc3cc2NC(=S)N2CCN(C)CC2)CC1`, the melting point was in the range of 192 to 195 °C. `CN(C)c1ccc(C(=O)C(C)(C)N2CCOCC2)cc1` had a melting point of 152 to 155 °C. For `CC(=O)c1ccc(OC(C)c2ccnc3ncnn23)cc1` (stereo not drawn) the value was 136 to 138 °C. `CCOC(=O)c1cc(=O)c2c(CC)cc(Cl)cc2[nH]1` came in with a melting point of 182 to 183 °C.

In turn, `C=CCN(C(C)=O)c1cccc(-c2ccnc3c(C#N)cnn23)c1` came in with a melting point of 135 to 137 °C.

For the compound `O=C1c2cccc(NC(=S)Nc3cnccn3)c2C2CC3(CCN12)SCCS3` (stereo not drawn), the melting point is 128 °C. In the case of `CC1(C)[C@@H]2[C@H]1[C@@H](O)O[C@H]2C(Cl)(Cl)Cl` it was 100 to 105 °C; in that of `CCNc1nc(N)nc(N)n1`, 171 °C; in that of `CCc1cccc(-c2cnc3[nH]cc(C(=O)C(C)(C)C)c3n2)c1`, 199 to 200 °C. For `CCOC(=O)C1CCCN1C(=O)c1cc2c(cc1[N+](=O)[O-])OCO2` (stereo not drawn) the value was 94 °C; for `O=c1cc2c(nn1-c1ccc(Cl)cc1)-c1ncccc1CC2`, 174 to 176 °C; for `N=C(N)Nc1nc(CSCCC(=O)NS(N)(=O)=O)cs1`, 160 °C. For `Cc1ccc(N=C2NCCN2)c(Cl)c1Cl`, the melting point fell in the range of 158 to 162 °C. In the case of `O=C1c2ccccc2C(=O)N1CCSc1nccc(NC(=S)NCC(F)(F)F)n1` it was 238 to 241 °C; in that of `O=C(O)c1ccc2c(c1)NCc1ccccc1O2`, 251 to 252 °C. In the case of `CCOc1c(NCc2ccc(C#N)c(CC)c2)c(=O)c1=O` it was 239 to 242 °C. Regarding `Oc1nn(-c2ccccc2)cc1Cc1ccccc1`, the melting point fell in the range of 185 to 186 °C.

`Fc1cc2c(Cl)ncnc2cn1`: the melting point was 75 to 76 °C. Turning to `Cc1cc(C)c(S(=O)(=O)NCCS)c(C)c1`, the melting point stood at 73 °C. For `CN1CCN(C)c2c(N)cccc2C1=O` the value was 165 to 166 °C; for `COC(=O)C(C)(C)S(=O)(=O)N1CC=C(c2ccc(Br)c(C)c2)CC1`, 100 to 101 °C; for `O=C(CCCCO)NCC1Cc2ccccc2Cc2ccccc21` (stereo not drawn), 96 to 98 °C. For `COc1ccc(N2CCN(c3ccc(F)cc3)CC2)c(-c2ccc(N(C)C)cc2)n1` the value was 168 to 169 °C; for `CCc1ccc(-c2ccc3c(c2)C=C(C(=O)O)CCO3)cc1`, 241 to 243 °C. For `CC(C)C1(C)N=C(c2ncc(C3OCCCCO3)cc2C(=O)O)NC1=O` (stereo not drawn) the value was 60 to 69 °C.

The compound `CC(=O)N1N=C(c2ccncc2)OC1c1c(F)cccc1F` (stereo not drawn) yielded a melting point of 119 to 121 °C. `CC(=O)c1c(C)nc2c(OCc3c(Cl)ccc(S(=O)(=O)N4CCC[C@H]4C(=O)NCCCNC(=O)c4ccc(C=NN)cc4)c3Cl)cccn12` came in with a melting point of 158 to 160 °C. For `CCCC(=O)C(=CNc1ccc(OCC)c(C)n1)C(=O)OCC` the value was 117 to 120 °C; for `CCCC(=O)c1cccc(NC(=O)C=C(C)OC)c1`, 81 °C; for `CCCC1(S(=O)(=O)CCCN2CCC(N3Cc4ccccc4C3=O)CC2)c2ccccc2-c2ccccc21`, 83 to 86 °C.

The compound `COc1cc(Nc2c(C#N)cnc3cc(I)sc23)cc(OC)c1OC` had a melting point of 254 to 256 °C.

In turn, `Cn1cc(C(=O)O)c2nc3ncccc3cc2c1=O` came in with a melting point of over 300 °C. For `CCNC(=O)Oc1cnn(C(C)(C)C)c1` the value was 77 °C; for `CCOC(=O)c1ccc(-c2ccc(-c3ccccc3)c(-c3ccc4c(c3)C(C)(C)CCC4(C)C)c2)nc1`, 105 to 107 °C; for `CCCNC(=O)n1nc(Oc2ccc(C(F)(F)F)cc2[N+](=O)[O-])cc1C`, 50 to 51 °C. For `COc1ccc2c(c1)c(Cc1cc(=O)n(-c3cccc(Cl)c3)[nH]1)c(C)n2C(=O)c1ccc(Cl)cc1` the value was 148 to 150 °C; for `CSCN1C(=O)c2cccnc2N(CSC)c2cc(Cl)ccc21`, 181 to 182 °C.
